Measurements published in US20250333442A1, “NOVEL CELL-PERMEABLE PEPTIDE AND USE THEREOF” (AJOU UNIVERSITY INDUSTRY-ACADEMIC COOPERATION FOUNDATION, priority 2021, published 2025).

How the values were obtained:
[1] = tested on: splenocytes; assay: Splenocyte permeability by confocal microscopy; type: cell-based; details: 1 μg/mL fluorescent-labeled peptide, ICR mouse splenocytes, culture times 1, 4 and 24 hours
Experimental: To determine the cell permeability of F1 peptides, 1 μg/mL of fluorescent-labeled F1 and F2 peptides were treated to cultures of splenocytes isolated from 4-week-old ICR mice, followed by culture for 24 hours. Afterwards, intracellular fluorescence expression over culture times (1, 4 and 24 hours) was observed by confocal microscopy. The untreated group with no peptide treatment involved was used as a control, alongside with a GFP peptide ([…]) treated group without cell permeability and a scramble D treated group (negative control).

[2] = tested on: peritoneal macrophages; assay: Peritoneal macrophage permeability by confocal microscopy; type: cell-based; details: 1 μg/mL fluorescent-labeled peptide, ICR mouse peritoneal macrophages, culture times 1, 4 and 24 hours
Experimental: To determine the cell permeability of F1 peptides, 1 μg/mL of fluorescent-labeled F1 and F2 peptides was treated to cultures of peritoneal macrophages isolated from 4-week-old ICR mice, followed by culture for 24 hours. Afterwards, intracellular fluorescence expression over culture times (1, 4 and 24 hours) was observed by confocal microscopy.

[3] = tested on: skin (epidermis) tissues; assay: Skin tissue permeability by confocal microscopy; type: in vivo, mouse; details: for fluorescence expression in tissues: 1 μg/mL applied to mouse leg skin with cotton swab, cryosection; for difference in fluorescence expression with or without scratches: normal versus needle-scratched skin, 1 μg/mL, 1˜2 hours
Experimental: To identify the skin tissue permeability of the F1 peptide, the left leg of 4-week-old ICR mice was left unscratched, and the right leg was scratched with a needle. Afterwards, 1 μg/mL of fluorescent-labeled F1 and F2 peptides was applied to both legs with cotton swabs respectively, and after 1˜2 hours, skin (epidermis) tissues were collected, cryosectioned, and observed under confocal microscopy.

[4] = tested on: lymph node cells; assay: Cell permeability via flow cytometry, lymph node cells; type: cell-based, mouse; details: for positive cell frequency (of entire cells): 1 μg/mL
Experimental: (§1) To determine whether the F1 peptide has entered the cell by penetrating the plasma membrane, splenocytes and lymph node cells were isolated from 4-week-old ICR mice, cultured for 1 hour, treated with 1 μg/mL of fluorescent-labeled F1 and F2 peptides, respectively, and then cultured for 48 hours. Flow cytometry was then used to analyze a frequency of fluorescent-labeled cells over culture time (1, 4, 24, and 48 hours) to determine the frequency of cells into which the peptide moved.

[5] = tested on: splenocytes; assay: Cell permeability of peptides with SEQ ID NOS: 22 to 30 via flow cytometry; type: cell-based, mouse; details: splenocytes of 8-week-old ICR mice, 1 μg/mL, 24 and 48 hours
Experimental: To determine whether the F1 peptide enables penetration into cells even if a peptide without cell permeability is linked in the middle of any amino acid sequence, splenocytes were isolated from ICR 8-week-old mice and cultured for 1 hour. Afterwards, 1 μg/mL of fluorescent-labeled peptides (SEQ ID NOS: 22 to 30) was treated to cells respectively, followed by culture for 48 hours. Afterwards, flow cytometry was used to analyze the frequency of fluorescent-labeled cells over the culture time (24 and 48 hours) to determine the frequency of cells into which the peptide moved. […] A total of 4 mice were used, with the number of mice per experimental group (Group) set to 2 and the experiment repeated twice.

[6] = tested on: splenocytes; assay: Cell permeability via flow cytometry, splenocytes; type: cell-based, mouse; details: culture times 1, 4, 24 and 48 hours
Experimental: as §1

[7] = tissue collected after 1˜2 hours, confocal microscopy

Row | Substance | intracellular fluorescence expression [1] | intracellular fluorescence expression [2] | fluorescence expression in tissues [3, 7] | difference in fluorescence expression with or without scratches [3] | other results
1 | GCCGEIV [Peptide F1] | showed fluorescence expression in splenocytes | showed fluorescence expression in peritoneal macrophages | showed fluorescence expression in tissues | no significant difference | positive cell frequency (of entire cells) ([4]; over 4 hours): about 40%
2 | GCCGEIVDDDDDDDD [Peptide F1D8] | – | – | – | – | degree of penetration of the D peptide into the cell compared with R8D control [5]: superior to that of the R8 peptide; penetration of the DDDDDDDD peptide inside the cell compared with cTATD control [5]: at a level similar to that of the cTAT peptide
3 | HKFSVSGEGEGDATC [GFP peptide, GFP peptide without cell permeability, used as control, reference compound] | – | – | – | – | intracellular fluorescence expression [6]: intracellular fluorescence expression was not observed; intracellular fluorescence expression ([4]; culture times 1, 4, 24 and 48 hours): intracellular fluorescence expression was not observed
4 | GCDDDDDDDDCGEIV [Peptide F2] | showed fluorescence expression in splenocytes | showed fluorescence expression in peritoneal macrophages | showed fluorescence expression in tissues | no significant difference | fluorescence expression in hair follicles ([3]; 1 μg/mL applied to mouse leg skin, tissue collected after 1˜2 hours, confocal microscopy): strong fluorescence expression especially in hair follicles; positive cell frequency (of entire cells) ([4]; over 48 hours): about 60%
